{"source": "PubChem BioAssay (NCI)", "assay_in_all_cases": "growth of human tumour cells (NCI), 48 h", "key": {"[1]": {"tested_on": "786-0 renal"}, "[2]": {"tested_on": "A498 renal"}, "[3]": {"tested_on": "A549 NSCLC"}, "[4]": {"tested_on": "ACHN renal"}, "[5]": {"tested_on": "BT-549 breast"}, "[6]": {"tested_on": "CAKI-1 renal"}, "[7]": {"tested_on": "CCRF-CEM leukemia"}, "[8]": {"tested_on": "COLO 205 colon"}, "[9]": {"tested_on": "DU-145 prostate"}, "[10]": {"tested_on": "HCC-2998 colon"}, "[11]": {"tested_on": "HL-60(TB) leukemia"}, "[12]": {"tested_on": "HOP-62 NSCLC"}, "[13]": {"tested_on": "HOP-92 NSCLC"}, "[14]": {"tested_on": "HS 578T breast"}, "[15]": {"tested_on": "HT29 colon"}, "[16]": {"tested_on": "IGROV1 ovarian"}, "[17]": {"tested_on": "K-562 leukemia"}, "[18]": {"tested_on": "KM12 colon"}, "[19]": {"tested_on": "LOX IMVI melanoma"}, "[20]": {"tested_on": "M14 melanoma"}, "[21]": {"tested_on": "MALME-3M melanoma"}, "[22]": {"tested_on": "MCF7 breast"}, "[23]": {"tested_on": "MDA-MB-231 breast"}, "[24]": {"tested_on": "MDA-MB-435"}, "[25]": {"tested_on": "MOLT-4 leukemia"}, "[26]": {"tested_on": "NCI-H226 lung"}, "[27]": {"tested_on": "NCI-H23 lung"}, "[28]": {"tested_on": "NCI-H460 lung"}, "[29]": {"tested_on": "NCI-H522 lung"}, "[30]": {"tested_on": "NCI/ADR-RES ovarian"}, "[31]": {"tested_on": "OVCAR-3 ovarian"}, "[32]": {"tested_on": "OVCAR-4 ovarian"}, "[33]": {"tested_on": "OVCAR-5 ovarian"}, "[34]": {"tested_on": "OVCAR-8 ovarian"}, "[35]": {"tested_on": "PC-3 prostate"}, "[36]": {"tested_on": "RPMI-8226 leukemia"}, "[37]": {"tested_on": "SF-268 CNS"}, "[38]": {"tested_on": "SF-295 CNS"}, "[39]": {"tested_on": "SF-539 CNS"}, "[40]": {"tested_on": "SK-MEL-2 melanoma"}, "[41]": {"tested_on": "SK-MEL-28 melanoma"}, "[42]": {"tested_on": "SK-MEL-5 melanoma"}, "[43]": {"tested_on": "SK-OV-3 ovarian"}, "[44]": {"tested_on": "SN12C renal"}, "[45]": {"tested_on": "SNB-19 CNS"}, "[46]": {"tested_on": "SNB-75 CNS"}, "[47]": {"tested_on": "SR leukemia"}, "[48]": {"tested_on": "SW-620 colon"}, "[49]": {"tested_on": "T-47D breast"}, "[50]": {"tested_on": "TK-10 renal"}, "[51]": {"tested_on": "U251 CNS"}, "[52]": {"tested_on": "UACC-257 melanoma"}, "[53]": {"tested_on": "UACC-62 melanoma"}, "[54]": {"tested_on": "UO-31 renal"}}, "note": "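48-hour exposure; five concentrations; linearly interpolated endpoints. Abbreviation: GI50, concentration required for 50% inhibition of growth. The concentration for full growth arrest is given as TGI.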"}
{"smiles": "COc1ccc2c(c1)O/C(=C\\c1ncc([N+](=O)[O-])n1C)C2=O", "values": [{"measurement": "GI50", "setting": "[1]", "value": 0.805, "unit": "µM"}, {"measurement": "TGI", "setting": "[1]", "value": 3.89, "unit": "µM"}, {"measurement": "GI50", "setting": "[2]", "value": 1.2, "unit": "µM"}, {"measurement": "TGI", "setting": "[2]", "value": 2.68, "unit": "µM"}, {"measurement": "GI50", "setting": "[3]", "value": 0.561, "unit": "µM"}, {"measurement": "TGI", "setting": "[3]", "value": 4.54, "unit": "µM"}, {"measurement": "GI50", "setting": "[4]", "value": 0.158, "unit": "µM"}, {"measurement": "TGI", "setting": "[4]", "value": 0.495, "unit": "µM"}, {"measurement": "GI50", "setting": "[5]", "value": 0.684, "unit": "µM"}, {"measurement": "TGI", "setting": "[5]", "value": 2.94, "unit": "µM"}, {"measurement": "GI50", "setting": "[6]", "value": 0.202, "unit": "µM"}, {"measurement": "TGI", "setting": "[6]", "value": 0.544, "unit": "µM"}, {"measurement": "GI50", "setting": "[7]", "value": 0.264, "unit": "µM"}, {"measurement": "TGI", "setting": "[7]", "value": 2.02, "unit": "µM"}, {"measurement": "GI50", "setting": "[8]", "value": 0.363, "unit": "µM"}, {"measurement": "TGI", "setting": "[8]", "value": 2.24, "unit": "µM"}, {"measurement": "GI50", "setting": "[9]", "value": 0.285, "unit": "µM"}, {"measurement": "TGI", "setting": "[9]", "value": 0.794, "unit": "µM"}, {"measurement": "GI50", "setting": "[10]", "value": 0.899, "unit": "µM"}, {"measurement": "TGI", "setting": "[10]", "value": 4.19, "unit": "µM"}, {"measurement": "GI50", "setting": "[11]", "value": 0.331, "unit": "µM"}, {"measurement": "GI50", "setting": "[12]", "value": 1.1, "unit": "µM"}, {"measurement": "TGI", "setting": "[12]", "value": 4.18, "unit": "µM"}, {"measurement": "GI50", "setting": "[13]", "value": 0.555, "unit": "µM"}, {"measurement": "TGI", "setting": "[13]", "value": 4.05, "unit": "µM"}, {"measurement": "GI50", "setting": "[14]", "value": 0.641, "unit": "µM"}, {"measurement": "TGI", "setting": "[14]", "value": "> 21.9", "unit": "µM"}, {"measurement": "GI50", "setting": "[15]", "value": 0.291, "unit": "µM"}, {"measurement": "TGI", "setting": "[15]", "value": 1.39, "unit": "µM"}, {"measurement": "GI50", "setting": "[16]", "value": 0.558, "unit": "µM"}, {"measurement": "TGI", "setting": "[16]", "value": 9.86, "unit": "µM"}, {"measurement": "GI50", "setting": "[17]", "value": 0.414, "unit": "µM"}, {"measurement": "GI50", "setting": "[18]", "value": 0.776, "unit": "µM"}, {"measurement": "TGI", "setting": "[18]", "value": 2.81, "unit": "µM"}, {"measurement": "GI50", "setting": "[19]", "value": 0.256, "unit": "µM"}, {"measurement": "TGI", "setting": "[19]", "value": 0.889, "unit": "µM"}, {"measurement": "GI50", "setting": "[20]", "value": 0.363, "unit": "µM"}, {"measurement": "TGI", "setting": "[20]", "value": 1.53, "unit": "µM"}, {"measurement": "GI50", "setting": "[21]", "value": 0.379, "unit": "µM"}, {"measurement": "TGI", "setting": "[21]", "value": 1.7, "unit": "µM"}, {"measurement": "GI50", "setting": "[22]", "value": 0.495, "unit": "µM"}, {"measurement": "TGI", "setting": "[22]", "value": 9.37, "unit": "µM"}, {"measurement": "GI50", "setting": "[23]", "value": 0.256, "unit": "µM"}, {"measurement": "TGI", "setting": "[23]", "value": 1.38, "unit": "µM"}, {"measurement": "GI50", "setting": "[24]", "value": 0.224, "unit": "µM"}, {"measurement": "TGI", "setting": "[24]", "value": 0.735, "unit": "µM"}, {"measurement": "GI50", "setting": "[25]", "value": 0.0453, "unit": "µM"}, {"measurement": "GI50", "setting": "[26]", "value": 1.43, "unit": "µM"}, {"measurement": "TGI", "setting": "[26]", "value": 4.27, "unit": "µM"}, {"measurement": "GI50", "setting": "[27]", "value": 0.257, "unit": "µM"}, {"measurement": "TGI", "setting": "[27]", "value": 1.32, "unit": "µM"}, {"measurement": "GI50", "setting": "[28]", "value": 0.201, "unit": "µM"}, {"measurement": "TGI", "setting": "[28]", "value": 0.619, "unit": "µM"}, {"measurement": "GI50", "setting": "[29]", "value": 0.266, "unit": "µM"}, {"measurement": "TGI", "setting": "[29]", "value": 0.927, "unit": "µM"}, {"measurement": "GI50", "setting": "[30]", "value": 0.584, "unit": "µM"}, {"measurement": "TGI", "setting": "[30]", "value": 9.51, "unit": "µM"}, {"measurement": "GI50", "setting": "[31]", "value": 0.376, "unit": "µM"}, {"measurement": "TGI", "setting": "[31]", "value": 1.88, "unit": "µM"}, {"measurement": "GI50", "setting": "[32]", "value": 2.52, "unit": "µM"}, {"measurement": "TGI", "setting": "[32]", "value": "> 100", "unit": "µM"}, {"measurement": "GI50", "setting": "[33]", "value": 1.87, "unit": "µM"}, {"measurement": "TGI", "setting": "[33]", "value": 6.39, "unit": "µM"}, {"measurement": "GI50", "setting": "[34]", "value": 0.245, "unit": "µM"}, {"measurement": "TGI", "setting": "[34]", "value": 1.94, "unit": "µM"}, {"measurement": "GI50", "setting": "[35]", "value": 2.24, "unit": "µM"}, {"measurement": "TGI", "setting": "[35]", "value": "> 29.2", "unit": "µM"}, {"measurement": "GI50", "setting": "[36]", "value": 1.34, "unit": "µM"}, {"measurement": "TGI", "setting": "[36]", "value": 5.75, "unit": "µM"}, {"measurement": "GI50", "setting": "[37]", "value": 0.268, "unit": "µM"}, {"measurement": "TGI", "setting": "[37]", "value": 1.14, "unit": "µM"}, {"measurement": "GI50", "setting": "[38]", "value": 1.4, "unit": "µM"}, {"measurement": "TGI", "setting": "[38]", "value": 5.31, "unit": "µM"}, {"measurement": "GI50", "setting": "[39]", "value": 1.27, "unit": "µM"}, {"measurement": "TGI", "setting": "[39]", "value": 3.2, "unit": "µM"}, {"measurement": "GI50", "setting": "[40]", "value": 1.13, "unit": "µM"}, {"measurement": "TGI", "setting": "[40]", "value": 3.7, "unit": "µM"}, {"measurement": "GI50", "setting": "[41]", "value": 0.371, "unit": "µM"}, {"measurement": "TGI", "setting": "[41]", "value": 2.55, "unit": "µM"}, {"measurement": "GI50", "setting": "[42]", "value": 0.246, "unit": "µM"}, {"measurement": "TGI", "setting": "[42]", "value": 0.837, "unit": "µM"}, {"measurement": "GI50", "setting": "[43]", "value": 1.56, "unit": "µM"}, {"measurement": "TGI", "setting": "[43]", "value": 6.86, "unit": "µM"}, {"measurement": "GI50", "setting": "[44]", "value": 0.472, "unit": "µM"}, {"measurement": "TGI", "setting": "[44]", "value": 2.09, "unit": "µM"}, {"measurement": "GI50", "setting": "[45]", "value": 1.18, "unit": "µM"}, {"measurement": "TGI", "setting": "[45]", "value": 6.26, "unit": "µM"}, {"measurement": "GI50", "setting": "[46]", "value": 0.974, "unit": "µM"}, {"measurement": "TGI", "setting": "[46]", "value": 3.78, "unit": "µM"}, {"measurement": "GI50", "setting": "[47]", "value": 0.0294, "unit": "µM"}, {"measurement": "GI50", "setting": "[48]", "value": 0.178, "unit": "µM"}, {"measurement": "TGI", "setting": "[48]", "value": 1.31, "unit": "µM"}, {"measurement": "GI50", "setting": "[49]", "value": 5.46, "unit": "µM"}, {"measurement": "TGI", "setting": "[49]", "value": "> 100", "unit": "µM"}, {"measurement": "GI50", "setting": "[50]", "value": 1.26, "unit": "µM"}, {"measurement": "TGI", "setting": "[50]", "value": "> 20", "unit": "µM"}, {"measurement": "GI50", "setting": "[51]", "value": 0.812, "unit": "µM"}, {"measurement": "TGI", "setting": "[51]", "value": 3.05, "unit": "µM"}, {"measurement": "GI50", "setting": "[52]", "value": 0.59, "unit": "µM"}, {"measurement": "TGI", "setting": "[52]", "value": 2.16, "unit": "µM"}, {"measurement": "GI50", "setting": "[53]", "value": 0.848, "unit": "µM"}, {"measurement": "TGI", "setting": "[53]", "value": 2.41, "unit": "µM"}, {"measurement": "GI50", "setting": "[54]", "value": 0.334, "unit": "µM"}, {"measurement": "TGI", "setting": "[54]", "value": 1.89, "unit": "µM"}]}
